Source: US10519116B2, “Water-soluble pyrazole derivatives as corrosion inhibitors” (Ecolab USA Inc., priority 2015, dated 2019)
In brackets after ≈: the same amount, converted by molar mass.

What was measured:
[1] = Copper corrosion rate by linear polarization resistance measurements; details: copper coupons, 5 ppm inhibitor, pH 7.0, 45° C.; for No FRC Corrosion Rate: absence of bleach, average over 24 hour period; for 1 ppm FRC Corrosion Rate: bleach added to keep FRC at 1 ppm
Protocol: The corrosion rate of copper in the presence of (1H-pyrazol-1-yl)methanol, (3,5-dimethyl-1H-pyrazol-1-yl)methanol, (3,5-dimethyl-1H-pyrazol-1-yl)(phenyl)methanol, 1-(3,5-dimethyl-1H-pyrazol-1-yl)ethan-1-ol, 2-(1H-pyrazol-1-yl)ethan-1-ol, 3-phenyl-1H-pyrazole, 4-chloro-3,5-dimethyl-1H-pyrazole, and 3,5-dimethylpyrazole was determined using linear polarization resistance measurements. In addition, the corrosion rate of copper in the presence of pyrazole, 1-ethyl-1H-pyrazole, and tolyltriazole was determined using linear polarization resistance measurements. (1H-Pyrazol-1-yl)methanol, (3,5-dimethyl-1H-pyrazol-1-yl)methanol, (3,5-dimethyl-1H-pyrazol-1-yl)(phenyl)methanol, 4-chloro-3,5-dimethyl-1H-pyrazole, and 1-(3,5-dimethyl-1H-pyrazol-1-yl)ethan-1-ol were prepared by Applicants. Pyrazole, 3,5-dimethylpyrazole, 2-(1H-pyrazol-1-yl)ethan-1-ol, and 1-ethyl-1H-pyrazole were purchased from TCI America. 3-Phenyl-1H-pyrazole and tolyltriazole were purchased from Sigma-Aldrich (St. Louis, Mo.).
For each experiment, cylindrical copper coupons pre-polished using SIC 600 paper and fitted on a Pine rotator were immersed in a solution of corrosion inhibitor. The test solution comprised 470 ppm calcium, 230 ppm magnesium, 590 ppm chloride, 260 ppm sulfate, and 100 ppm alkalinity, as CaCO3. The pH of the test water was maintained at 7.0 using carbon dioxide, and the water temperature was maintained at 45° C. throughout the experiment.
The copper samples were immersed in 1 liter electrochemical cells comprising a 5 ppm inhibitor solution, and the Rp (polarization resistance) was recorded over a 24 hour period. The analysis was conducted using the following testing conditions: Initial E: −0.02V; Final E: +0.02V; Scan rate: 0.5 mV/s; Sample period: 1 second; Repeat time: 15 minutes; Sample area: 5 cm^2; Density: 8.92 g/cm^3; Copper Eq. Weight: 63.54 g; and Initial delay: 30 seconds.
Next, the copper samples were exposed to 1 ppm FRC by adding a few drops of 4% bleach solution to the electrolyte solution. After the FRC reached 1 ppm, the copper samples were analyzed. Throughout the analysis, the bleach solution was added intermittently to maintain the FRC at 1 ppm. The Rp in the absence and presence of bleach was collected and analyzed, and the average corrosion rate was calculated and recorded in Table 1. Corrosion rates were calculated in mils per year (mpy). FIGS. 1-3 display data plots for compounds 1, 3, 5, 6, and 9.

[2] = test system: Pseudokirchneriella subcapita; experiment: Chronic 72-Hour Green Algal Growth Test; assay type: in vivo; details: 72-hour chronic green algal growth test
Protocol: (§1) The aquatic toxicity of (1H-pyrazol-1-yl)methanol toward a variety of species was analyzed. (1H-pyrazol-1-yl)methanol had lower aquatic toxicity than many commonly used corrosion inhibitors.

[3] = Turbidity of 2% aqueous solutions at various pH levels (solubility); assay type: physicochemical; details: judged from turbidity at a wide range of pH levels
Protocol: Solutions comprising (1H-pyrazol-1-yl)methanol and 3,5-dimethylpyrazole at various pH levels were prepared by dissolving the corresponding pyrazole (2 grams) in deionized water (98 grams). The solutions were adjusted to the desired pH by adding dilute sulfuric acid or aqueous sodium hydroxide (1 N). The turbidity of each solution was measured using a HACH 2100Q Portable Turbidimeter.

Oncorhynchus mykiss = experiment: in vivo; details: 96-hour definitive toxicity test
Protocol: as §1

in vivo = details: in vivo; 96-hour definitive toxicity test
Protocol: as §1

Ceriodaphnia dubia = Ceriodaphnia dubia 48-Hour Definitive Toxicity Test; assay type: in vivo
Protocol: as §1

[4] = as above; assay type: in vivo; details: Ceriodaphnia dubia, in vivo, other: aquatic exposure (compound in the test water)
Protocol: as §1

| Molecule | No FRC Corrosion Rate [1] | 1 ppm FRC Corrosion Rate [1] | other results |
| --- | --- | --- | --- |
| OCn1cccn1 [Compound 1, (1H-pyrazol-1-yl)methanol] | 0.0057 mpy | 0.0296 mpy | No FRC Corrosion Rate ([1]; listed as (1H-pyrazol-1-yl)methanol): 0.0057 mpy; IC50 [2]: 3.83 mg/L (≈ 39 µM); NOEC (survival) [2]: 2.5 mg/L; water solubility [3]: water soluble; LC50 (Oncorhynchus mykiss): >100 mg/L; NOEC (survival) (Oncorhynchus mykiss): 50 mg/L; LC50 at 96 h (in vivo): > 100 mg/L; NOEC (survival) (Ceriodaphnia dubia): 13 mg/L; LC50 at 48 h [4]: 31.5 mg/L (≈ 321 µM) |
| Cc1cc(C)n(C(O)c2ccccc2)n1 (centres unmarked) [Compound 2, (3,5-dimethyl-1H-pyrazol-1-yl)(phenyl)methanol] | 0.0043 mpy | 0.0479 mpy |  |
| Cc1cc(C)n(C(C)O)n1 (centres unmarked) [Compound 3, 1-(3,5-dimethyl-1H-pyrazol-1-yl)ethan-1-ol] | 0.0036 mpy | 0.0142 mpy |  |
| OCCn1cccn1 [Compound 4, 2-(1H-pyrazol-1-yl)ethan-1-ol] | 0.0212 mpy | 0.2739 mpy |  |
| Cc1cc(C)n(CO)n1 [Compound 5, (3,5-dimethyl-1H-pyrazol-1-yl)-methanol] | 0.0197 mpy | 0.0228 mpy |  |
| Cc1cc(C)[nH]n1 [Compound 6, 3,5-dimethylpyrazole] | 0.0396 mpy | 0.0599 mpy | water solubility [3]: water soluble |
| Cc1n[nH]c(C)c1Cl [Compound 7, 4-chloro-3,5-dimethyl-1H-pyrazole] | 0.0025 mpy | 0.0212 mpy |  |
| c1ccc(-c2cc[nH]n2)cc1 [Compound 8, 3-phenyl-1H-pyrazole] | 0.0039 mpy | 0.0916 mpy |  |
| c1cn[nH]c1 [Compound 9, Pyrazole] | 0.4232 mpy | 0.1666 mpy |  |
| CCn1cccn1 [Compound 10, 1-ethyl-1H-pyrazole, reference compound] | 0.0345 mpy | 0.5932 mpy |  |
| Tolyltriazole [Compound 11, reference compound] | 0.0214 mpy | 0.0995 mpy |  |
